Results on 19 compounds are retold here after patent US7358250B2, “Pyrrolo[2,3-d]pyrimidines that modulate ACK1 activity” (Amgen Inc., priority 2004, dated 2008).

SMILES strings stand for the structures.

The term Ki denotes a measure of affinity in units of concentration, obtained from inhibition or displacement. Broadly, the IC50 is the point on the concentration scale where inhibition reaches its midpoint.

For assay [1], the target named is T1, ACK1 (Homo sapiens, UniProt Q07912).
T1 construct: a fusion of an N-terminal (His)6 Tag with amino acids 117 to 489 of ACK1; (His)6 (N); made in house; host or cells: baculovirus infected Hi-5 insect cells
Kind of assay: ACK1 Enzymatic Assay. Type of assay: biochemical. The following applies: 5 μM ATP, ELISA phosphotyrosine readout. As for the experimental part:
IC50 values of inventive compounds may be assessed as follows. […] The substrate of for the reaction is ACK1 itself (autophosphorylation) and poly-Glutamic acid-Tyrosine (PGT (4:1), Sigma catalog #PO275). The PGT is coated to Nunc 96 well plates at 80 μg/mL overnight at 4° C. […] Test compounds are added in 10 μL DMSO, and the reaction is started by addition of 10 μL kinase in assay buffer. The reaction proceeds 2 h at room temperature. Next the plates are washed four times, and the level of tyrosine phosphorylation in a given well is quantified by standard ELISA assay utilizing a phosphotyrosine antibody (PY20, Pierce).
(In general: In an ELISA, binding on a coated surface is turned into a signal by an enzyme label.)

For assay [2], the system named is C8 cells. Briefly: ACK1 Cell Based Assay, test (C8) cell line. The following applies: 0.125% FCS, 20 to 24 h, cell viability (Cytotox One kit). The method, then: The ACK1 cell based assay is designed to find inhibitors of ACK1 kinase activity which would be prime candidates for the development of anticancer drugs. […] This dependency was confirmed utilizing ACK1 specific siRNAs.
For this assay, test (C8) and control (HeLa) cell lines are seeded in 96 well tissue culture plates (BD Falcon) at a density of 2 to 4×10^4 in DMEM/F12 (C8) or DMEM (HeLa) with 0.125% FCS in the presence of ACK1 inhibitors (final DMSO concentration is 0.5%, all tissue culture media are from Cellgro). After 20 to 24 h incubation at 37° C. and 5% CO2, cell viability is determined using the Cytotox One kit (Promega) according to the manufacturer's instructions.

In assay [3] the target is T2, LCK (Homo sapiens, UniProt P06239).
T2 construct: 15 μL of LCK KD GST (225-509) for a final volume of 40 μL; GST
Kind of assay: LCK-Homogeneous Time Resolved Fluorescent (HTRF) Kinase Assay. Type of assay: biochemical. The conditions noted are these: LCK KD GST (225-509). The method, then:
The LCK HTRF assay begins with LCK in the presence of ATP phosphorylating the biotinylated peptide Gastrin. The reaction incubates for 90 min. To quench the assay detection reagents are added which both stop the reaction by diluting out the enzyme and chelating the metals due to the presence of EDTA. Once the detection reagents are added the assay incubates for 30 min to allow for equilibration of the detection reagents.
The final concentration of gastrin is 1.2 μM. The final concentration of ATP is 0.5 μM (Km app=[…]) and the final concentration of LCK is […]. Buffer conditions are as follows: 50 mM HEPES pH 7.5, 50 mM NaCl, 20 mM MgCl, 5 mM MnCl, 2 mM DTT, 0.05% BSA.
The assay is quenched and stopped with 160 μL of detection reagent. Detection reagents are as follows: Buffer made of 50 mM Tris, pH 7.5, 100 mM NaCl, 3 mM EDTA, 0.05% BSA, 0.1% Tween20. Added to this buffer prior to reading is Steptavidin allophycocyanin (SA-APC) at a final conc in the assay of 0.0004 mg/mL, and europilated anti-phosphotyrosine Ab (Eu-anti-PY) at a final conc of 0.025 nM.
The assay plate is read in either a Discovery or a RubyStar. The eu-anti-PY is excited at 320 nm and emits at 615 nm to excite the SA-APC which in turn emits at 655 nm. The ratio of SA-APC at 655 nm (excited due to close proximity to the Eu-anti-PY because of phosphorylation of the peptide) to free Eu-anti-PY at 615 nm will give substrate phosphorylation.
A general note: In TR-FRET formats the signal depends on donor and acceptor labels being close together.

T1 sequence (Q07912 117-489): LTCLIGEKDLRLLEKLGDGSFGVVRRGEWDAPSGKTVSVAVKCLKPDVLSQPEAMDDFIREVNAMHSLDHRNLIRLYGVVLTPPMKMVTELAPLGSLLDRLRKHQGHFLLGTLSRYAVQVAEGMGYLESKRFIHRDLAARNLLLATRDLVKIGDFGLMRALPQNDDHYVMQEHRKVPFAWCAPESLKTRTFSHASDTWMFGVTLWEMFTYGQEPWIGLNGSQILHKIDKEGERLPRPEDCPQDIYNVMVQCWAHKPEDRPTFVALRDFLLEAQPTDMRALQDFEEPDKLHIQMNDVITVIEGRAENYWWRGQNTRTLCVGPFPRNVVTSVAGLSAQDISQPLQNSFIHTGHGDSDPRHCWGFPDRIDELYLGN
T2 sequence (P06239 225-509): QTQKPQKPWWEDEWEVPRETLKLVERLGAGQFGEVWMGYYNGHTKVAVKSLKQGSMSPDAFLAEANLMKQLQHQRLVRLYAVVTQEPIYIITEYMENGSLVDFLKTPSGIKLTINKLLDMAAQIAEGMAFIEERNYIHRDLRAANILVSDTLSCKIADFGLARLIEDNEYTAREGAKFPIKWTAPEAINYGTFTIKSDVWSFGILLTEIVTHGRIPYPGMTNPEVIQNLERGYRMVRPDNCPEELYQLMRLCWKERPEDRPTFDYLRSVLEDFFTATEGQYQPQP

Turning to `C=CCNS(=O)(=O)c1ccc(-c2[nH]c3ncnc(NCC4CCCO4)c3c2-c2ccccc2)cc1` (stereo not drawn) [Example 12, N-Allyl-4-{5-phenyl-4-[(tetrahydro-furan-2-ylmethyl)-amino]-7H-pyrrolo[2,3-d]pyrimidin-6-yl}-benzenesulfonamide], the Ki in assay [1] and in assay [3] was below 10 nM throughout. The compound further registered an IC50 in assay [2] above 100 nM.

Regarding `CC(C)(C)OC(=O)CNS(=O)(=O)c1ccc(-c2[nH]c3ncnc(NCC4CCCO4)c3c2-c2ccccc2)cc1` (stereo not drawn) [Example 13, (4-{5-Phenyl-4-[(tetrahydrofuran-2-ylmethyl)-amino]-7H-pyrrolo[2,3-d]pyrimidin-6-yl}-benzenesulfonylamino)-acetic acid tert-butyl ester], the Ki in assay [1] and in assay [3] was 10 to 100 nM throughout. In assay [2], this compound yielded an IC50 above 100 nM.

In the case of `CCOC(=O)CN(CC(=O)OCC)S(=O)(=O)c1ccc(-c2[nH]c3ncnc(NCC4CCCO4)c3c2-c2ccccc2)cc1` (stereo not drawn) [Example 14, [Ethoxycarbonylmethyl-(4-{5-phenyl-4-[(tetrahydrofuran-2-ylmethyl)-amino]-7H-pyrrolo[2,3-d]pyrimidin-6-yl}-benzenesulfonyl)-amino]-acetic acid ethyl ester], the Ki in assay [1] is below 10 nM; in assay [3], 10 to 100 nM. For the same compound, in assay [2], the IC50 is above 100 nM.

Regarding `NS(=O)(=O)c1ccc(-c2[nH]c3ncnc(NC[C@@H]4CCCO4)c3c2-c2ccccc2)cc1` [Example 15, 4-{5-Phenyl-4-[(tetrahydrofuran-2-ylmethyl)-amino]-7H-pyrrolo[2,3-d]pyrimidin-6-yl}-benzenesulfonamide], the Ki is below 10 nM in assay [1] and 10 to 100 nM in assay [3]. Also, the IC50 in assay [2] was above 100 nM.

Consider `O=S(=O)(NCC(O)CO)c1ccc(-c2[nH]c3ncnc(NC[C@@H]4CCCO4)c3c2-c2ccccc2)cc1` (stereo partly drawn) [Example 16, N-(2,3-Dihydroxy-propyl)-4-{5-phenyl-4-[(tetrahydrofuran-2-ylmethyl)-amino]-7H-pyrrolo[2,3-d]pyrimidin-6-yl}-benzenesulfonamide], for which the Ki in assay [1] and in assay [3] was below 10 nM throughout. The same compound yielded an IC50 in assay [2] above 100 nM.

Consider `O=C(O)CNS(=O)(=O)c1ccc(-c2[nH]c3ncnc(NC[C@@H]4CCCO4)c3c2-c2ccccc2)cc1` [Example 17], for which the Ki in assay [1] is below 10 nM; in assay [3], 10 to 100 nM. In addition, in assay [2], the IC50 was above 100 nM.

For `O=S(=O)(NCCO)c1ccc(-c2[nH]c3ncnc(NC[C@@H]4CCCO4)c3c2-c2ccccc2)cc1` [Example 18, N-(2-Hydroxy-ethyl)-4-{5-phenyl-4-[(tetrahydro-furan-2-ylmethyl)-amino]-7H-pyrrolo[2,3-d]pyrimidin-6-yl}-benzenesulfonamide], the Ki in assay [1] and in assay [3] was below 10 nM in each case. The compound also showed a concentration for half-maximal inhibition (IC50) in assay [2] above 100 nM.

As for `O=S(=O)(c1ccc(-c2[nH]c3ncnc(NC[C@@H]4CCCO4)c3c2-c2ccccc2)cc1)N(CCO)CCO` [Example 19, N,N-Bis-(2-hydroxyethyl)-4-{5-phenyl-4-[(tetrahydro-furan-2-ylmethyl)-amino]-7H-pyrrolo[2,3-d]pyrimidin-6-yl}-benzenesulfonamide], the Ki in assay [1] and in assay [3] was below 10 nM each time. For the same compound, the IC50 in assay [2] is above 100 nM.

Take `c1ccc(-c2c(-c3ccc(OCCN4CCOCC4)cc3)[nH]c3ncnc(NCC4CCCO4)c23)cc1` (stereo not drawn) [Example 21, {6-[4-(2-Morpholin-4-yl-ethoxy)-phenyl]-5-phenyl-7H-pyrrolo[2,3-d]pyrimidin-4-yl}-(tetrahydro-furan-2-ylmethyl)-amine]: the Ki in assay [1] and in assay [3] was below 10 nM in each case. Moreover, the IC50 in assay [2] lay within 10 to 100 nM.

On to `c1ccc(-c2c(-c3ccc(OCCN4CCCC4)cc3)[nH]c3ncnc(NCC4CCCO4)c23)cc1` (stereo not drawn) [Example 22, {5-Phenyl-6-[4-(2-pyrrolidin-1-yl-ethoxy)-phenyl]-7H-pyrrolo[2,3-d]pyrimidin-4-yl}-(tetrahydrofuran-2-ylmethyl)-amine], for which the inhibition constant (Ki) in assay [1] and in assay [3] was below 10 nM each time. The compound also showed an IC50 in assay [2] of 10 to 100 nM.

With `O=C1CCCN1CCOc1ccc(-c2[nH]c3ncnc(NCC4CCCO4)c3c2-c2ccccc2)cc1` (stereo not drawn) [Example 23, 1-[2-(4-{5-Phenyl-4-[(tetrahydrofuran-2-ylmethyl)-amino]-7H-pyrrolo[2,3-d]pyrimidin-6-yl}-phenoxy)-ethyl]-pyrrolidin-2-one], the Ki in assay [1] and in assay [3] was below 10 nM in each case. The same compound yielded an IC50 in assay [2] of 10 to 100 nM.

Consider `CN1CCCC1CCOc1ccc(-c2[nH]c3ncnc(NCC4CCCO4)c3c2-c2ccccc2)cc1` (stereo not drawn) [Example 24, (6-{4-[2-(1-Methyl-pyrrolidin-2-yl)-ethoxy]-phenyl}-5-phenyl-7H-pyrrolo[2,3-d]pyrimidin-4-yl)-(tetrahydrofuran-2-ylmethyl)-amine], for which the Ki in assay [1] and in assay [3] was 10 to 100 nM each time. This compound also showed an IC50 in assay [2] above 100 nM.

For the compound `N#CCOc1ccc(-c2[nH]c3ncnc(NC[C@@H]4CCCO4)c3c2-c2ccccc2)cc1` [Example 25, (4-{5-Phenyl-4-[(tetrahydrofuran-2-ylmethyl)-amino]-7H-pyrrolo[2,3-d]pyrimidin-6-yl}-phenoxy)-acetonitrile], the Ki is below 10 nM in assay [1] and 10 to 100 nM in assay [3]. The IC50 in assay [2] was 10 to 100 nM.

Turning to `CNC(=O)c1ccc(-c2[nH]c3ncnc(NC[C@@H]4CCCO4)c3c2-c2ccccc2)cc1` [Example 26, N-Methyl-4-{5-phenyl-4-[(tetrahydrofuran-2-ylmethyl)-amino]-7H-pyrrolo[2,3-d]pyrimidin-6-yl}-benzamide], the Ki in assay [1] and in assay [3] was below 10 nM throughout. In assay [2], this compound returned an IC50 of 10 to 100 nM.

`CN(C)C(=O)c1ccc(-c2[nH]c3ncnc(NCC4CCCO4)c3c2-c2ccccc2)cc1` (stereo not drawn) [Example 27, N,N-Dimethyl-4-{5-phenyl-4-[(tetrahydrofuran-2-ylmethyl)-amino]-7H-pyrrolo[2,3-d]pyrimidin-6-yl}-benzamide]: the Ki in assay [1] and in assay [3] was below 10 nM in each case. For the same compound, the IC50 in assay [2] lay within 10 to 100 nM.

Take `O=C(c1ccc(-c2[nH]c3ncnc(NCC4CCCO4)c3c2-c2ccccc2)cc1)N1CCOCC1` (stereo not drawn) [Example 28, Morpholin-4-yl-(4-{5-phenyl-4-[(tetrahydrofuran-2-ylmethyl)-amino]-7H-pyrrolo[2,3-d]pyrimidin-6-yl}-phenyl)-methanone]: the Ki in assay [1] was below 10 nM; in assay [3] it was above 100 nM. This compound showed an IC50 in assay [2] of 10 to 100 nM.

On to `O=C(NC1CC1)c1ccc(-c2[nH]c3ncnc(NCC4CCCO4)c3c2-c2ccccc2)cc1` (stereo not drawn) [Example 29, N-Cyclopropyl-4-{5-phenyl-4-[(tetrahydrofuran-2-ylmethyl)-amino]-7H-pyrrolo[2,3-d]pyrimidin-6-yl}-benzamide], for which the Ki in assay [1] and in assay [3] was below 10 nM throughout. For the same compound, in assay [2], the IC50 lay within 10 to 100 nM.

Consider `COCCNC(=O)c1ccc(-c2[nH]c3ncnc(NCC4CCCO4)c3c2-c2ccccc2)cc1` (stereo not drawn) [Example 30, N-(2-Methoxyethyl)-4-{5-phenyl-4-[(tetrahydrofuran-2-ylmethyl)-amino]-7H-pyrrolo[2,3-d]pyrimidin-6-yl}-benzamide], for which the Ki in assay [1] and in assay [3] was below 10 nM throughout. The same compound had a half-inhibitory concentration (IC50) in assay [2] of 10 to 100 nM.

As for `O=C(NCCN1CCOCC1)c1ccc(-c2[nH]c3ncnc(NCC4CCCO4)c3c2-c2ccccc2)cc1` (stereo not drawn) [Example 31, N-(2-Morpholin-4-yl-ethyl)-4-{5-phenyl-4-[(tetrahydrofuran-2-ylmethyl)-amino]-7H-pyrrolo[2,3-d]pyrimidin-6-yl}-benzamide], the Ki in assay [1] and in assay [3] was below 10 nM throughout. In assay [2], this compound had an IC50 above 100 nM.
